These results are taken from publication PMC12557367, ““Precision on Two Wheels”–Structural Refinement of ^64Cu- and ^68Ga-Labeled Bicyclic Peptides Targeting Nectin‑4 for Improved Tumor Imaging: From Preclinical Development to First-in-Human Application” (Journal of Medicinal Chemistry, 2025).

The nature of series [1]: Oxidation stability in H2O2 (radio-HPLC). As for the experimental part:
To avoid a too rapid degradation of radiolabeled peptides, a low H2O2 concentration of 0.0012% was chosen. […] In this context, there are three further thioether functionalities in each peptide due to the cyclization of the Cys residues with TATA. In Figure , the curves for the time-dependent degradation of the intact radioligands are depicted, from which the respective half-lives were calculated.
The stability toward oxidizing conditions was assessed with H2O2. For this purpose, the radioligands (2 nmol, 48 μL of labeling mixture) were treated with H2O2 (2 μL of 0.03%, final concentration of 0.0012%) at ambient temperature. At distinct time points (3, 5, and 7 h), an aliquot of 2 μL was withdrawn and diluted with 48 μL of a mixture named “Supersol,” which consists of 20% ethanol, 0.5% Triton X-100, 5 mM EDTA, 0.5 mM o-phenanthroline, and 0.1% saponin. […] The resulting solutions were analyzed by radio-HPLC (same system as that used for analyzing the ^64Cu-labelings).

Series [2] is described as follows: Small animal PET/CT imaging. Also noted: species or system mice. The settings on record: mouse, in vivo. The procedure:
(§1) All animal experiments were performed following the protocols evaluated and approved by the Landesdirektion Sachsen, Referat 25 – Veterinärwesen, Lebensmittelüberwachung and Pharmazie (09105 Chemnitz, Germany, ethics approval number: 25-5131/562/52). HT-1376- and 5637-derived tumor xenograft models were established in NMRI nude mice (Rj: NMRI-Foxn1nu/nu, Charles River Laboratories, Sulzfeld, Germany) by subcutaneous injection of 5 × 10^6 cells in 100 μL of PBS containing 50% (v/v) Matrigel (Corning Life Sciences, Amsterdam, The Netherlands).
(§2) When the tumor volume reached 200 mm^3, PET experiments with radiotracers were performed. Radiolabeling of the ligands was performed as described previously with an apparent molar activity of 25 MBq/nmol. The radioligand stock solution (pH 6.5 – 7.5) was diluted in 0.9% NaCl, and 200 μL containing ∼9 MBq ([…]) was injected per mouse intravenously into a lateral tail vein. For blocking of target-specific radioligand binding, 75 nmol of blocking substance (1d) was administered simultaneously with the radioligand. Coincidences were recorded continuously in a 2 h PET-scan starting with the injection. Additionally, a CT scan was performed for anatomical referencing and attenuation correction. PET/CT imaging, reconstruction, and tissue delineation were carried out as described previously.

Series [3] relates to HT-1376-derived tumor xenograft model. The series can be described thus: Small animal PET/CT imaging. The conditions noted are these: mouse, in vivo. Further details: species or system mice. As for the experimental part: as §1, §2
For series [4], the target named is T1, immobilized human nectin-4 (Homo sapiens, UniProt Q96NY8).
T1 construct: close to the value determined for the complete extracellular domain of nectin-4 (0.94 nM); purchased R&D Systems 2659-N4
T1 sequence (Q96NY8 32-349 limits assumed): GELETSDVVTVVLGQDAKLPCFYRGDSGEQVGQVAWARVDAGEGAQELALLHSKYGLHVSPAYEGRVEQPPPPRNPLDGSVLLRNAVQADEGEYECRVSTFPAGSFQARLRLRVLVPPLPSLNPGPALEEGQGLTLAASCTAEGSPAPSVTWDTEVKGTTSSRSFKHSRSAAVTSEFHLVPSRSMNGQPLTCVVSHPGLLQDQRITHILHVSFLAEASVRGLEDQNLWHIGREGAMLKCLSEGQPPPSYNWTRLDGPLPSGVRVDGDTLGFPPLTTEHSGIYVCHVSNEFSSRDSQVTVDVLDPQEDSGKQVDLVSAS
The series can be described thus: SPR analysis of binding kinetics. The settings on record: for kon / koff: ±SEM; for kon: read-out: k on (SPR, *10^6 M^–1 s^–1); for koff: pH 7.4, HBS-P+ pH 7.4, 25 °C, read-out: k off (SPR, *10^–3 s^–1).
Description: For this purpose, recombinant human nectin-4 was covalently immobilized on a CM5 sensor chip by EDC/NHS coupling. For analyses, the buffer composition (HBS-P+, pH 7.4) was similar to that of the FA assay; however, DMSO was completely omitted (1% DMSO for the FA assay).
The SPR analyses were carried out on a Biacore T200 (GE Healthcare, Chicago, IL, USA) at 25 °C using CM5 sensor chips (Cytiva) and HBS-P+ as running buffer (Cytiva) at a flow of 30 μL/min unless otherwise specified and a data collection rate of 10 Hz. All flow cells (FC) were normalized, and functionalization was performed using an amine coupling Kit (Cytiva). […] Binding analyses were performed by a single-cycle kinetic on both FC. Two start-up cycles were performed at the beginning of each experimental set, comprising the injection of bicyclic peptide (50 nM) and analysis on both FC, followed by regeneration. Binding analysis for the bicyclic peptides was performed by consecutive injection of five increasing concentrations (120 s contact time for each concentration), followed by 600 s dissociation time and analysis on both FC. The regeneration was performed by sequential injection of 10 mM NaOAc (pH 5.5) for 60 s, washing the needle using HBS-P+, injection of 10 mM NaOAc (pH 5.5) for 60 s, 600 s waiting, four injections of HBS-P+ (60 s), and a final 600 s waiting for stabilization. Blank runs using only buffer (HBS-P+) instead of the sample were carried out to obtain double-referenced chromatograms. Binding analyses were performed unless otherwise stated in a concentration range between 0.16–100 nM and 1.6–1000 nM (5-fold dilution series) and analyzed in triplicate. The data were analyzed using the Biacore Evaluation software 3.2.1. […] Data were fitted to a 1:1 binding model.

Series [5] addresses T2, recombinant human nectin-4 (Homo sapiens, UniProt Q96NY8).
T2 construct: close to the value determined for the complete extracellular domain of nectin-4 (0.94 nM); purchased R&D Systems 2659-N4
T2 sequence (Q96NY8 32-349 limits assumed): T1 sequence (Q96NY8 32-349 limits assumed)
Description: FA-based competitive binding assay with probe 1a. The settings on record: for fold lower binding affinity compared to 1e: FA K d ratio; for Hill coefficient n: competitive binding curve, variable slope. The procedure: For the competitive binding assay, a constant concentration of probe 1a (1 nM) and of nectin-4 (20 nM) was used, and the concentration of the competitors was varied over at least 3 orders of magnitude. […] Analysis of the curves by nonlinear regression according to dose–response inhibition with variable slope, as implemented in GraphPad Prism (see Experimental section), provided the IC50 value for displacing the probe from nectin-4.
All measurements were conducted at 37 °C over 1200 s (interval of 37 s) using a Cytation 5 multimode microplate reader (BioTek Instruments, Software Gen 5) and black 96-well microplates (BRANDplates with F-bottom wells). Experiments were conducted at an excitation wavelength of 540 nm and an emission wavelength of 620 nm. The FA (r) was calculated by Gen 5 software from the measured parallel and perpendicular fluorescence intensities (I ∥ and I ⊥, respectively) according to eq using a G factor of 0.87 (preset value). r=I∥−G×I⊥/I∥+2G×I⊥ 1
All further data analyses were conducted with GraphPad Prism (version 10.4.1, GraphPad Software, San Diego, CA, USA). The assay mixture (100 μL) contained an aqueous solution (99 μL) and DMSO (1%, v/v, 1 μL).
For the competitive binding assay, fixed concentrations of probe 1a (1 nM) and recombinant human nectin-4 (20 nM) and 10 concentrations of nonlabeled peptide (e.g., […] prepared as serial 1:1 dilution) were used (two separate experiments, each performed in duplicate). The corresponding stock solutions of 1a (2.5 nM) and nectin-4 (50 nM) were prepared in HEPES buffer, while the stock solutions of the nonlabeled peptides were prepared in 5% DMSO/HEPES buffer. nectin-4 (40 μL) and 1a (40 μL) were added to the wells, and the competition was started by the addition of the nonlabeled peptides (20 μL). The FA values were averaged over the time period of 1200 s, and plots of FA = f([peptide]) were analyzed by nonlinear regression according to the model “[inhibitor] vs. response – Variable slope (four parameters)” as implemented in GraphPad Prism. […] Therefore, the lower FA plateau was constrained to the FA value of probe 1a in the absence of nectin-4 and the competitor, which was recorded in each experiment.

Numbered stars: 1 amine (or outer) side, 2 acyl side, 3 side chain; on linkers, the order of the positions; unused ones are H or OH. Bridge positions count the residues as written; N and C are the ends. Square brackets hold non-standard residues; d marks the D form. Peptide text beside a SMILES is read from it. * marks the point of attachment. DOTA = O=C(O)CN1CCN(CC(=O)O)CCN(CC(=O)*)CCN(CC(=O)O)CC1; TATA = O=C(CC[*:1])N1CN(C(=O)CC[*:2])CN(C(=O)CC[*:3])C1; X1 = O=C(O)CN1CCN(CC(=O)O)CCN([C@H](CCC(=O)*)C(=O)O)CC1; 1Nal = N[C@@H](Cc1cccc2ccccc12)C(=O)O; 2Nal = N[C@@H](Cc1ccc2ccccc2c1)C(=O)O; Hyp = O=C(O)[C@@H]1C[C@@H](O)CN1; hArg = N=C(N)NCCCC[C@H](N)C(=O)O

Broadly, the half-life is the time needed for the level to fall by half in the phase considered. Low readings indicate fast loss, high ones slow loss. Take `CCSC[C@@H]1NC(=O)[C@@H]2CSCCC(=O)N3CN(CN(C3)C(=O)CCSC[C@H](NC(=O)CC[C@H](C(=O)O)N3CCN(CC(=O)O)CCN(CC(=O)O)CC3)C(=O)N3CCC[C@H]3C(=O)N[C@@H](Cc3cccc4ccccc34)C(=O)N[C@H](CC(=O)O)C(=O)N2)C(=O)CCSC[C@@H](C(N)=O)NC(=O)[C@H](Cc2c[nH]c3ccccc23)NC(=O)[C@@H]2C[C@@H](O)CN2C(=O)[C@@H]2CCCN2C(=O)[C@H]([C@@H](C)O)NC(=O)[C@H](CO)NC(=O)[C@H](Cc2c[nH]c3ccccc23)NC(=O)[C@H](CC(=O)O)NC(=O)[C@H](CCCCNC(=N)N)NC1=O` [[^64Cu]Cu-7, metal not drawn] (X1-CP[1Nal][dD]CC(Et)[hArg]DWSTP[Hyp]WC-NH2; linker 1-5-15 via TATA): the half-life in series [1] (half-life of intact radiolabeled peptide (T1/2), 0.0012% H2O2, 25 °C, one-phase decay) is 529 min.

In the case of `CSCC[C@@H]1NC(=O)[C@@H]2CSCCC(=O)N3CN(CN(C3)C(=O)CCSC[C@H](NC(=O)CN3CCN(CC(=O)O)CCN(CC(=O)O)CCN(CC(=O)O)CC3)C(=O)N3CCC[C@H]3C(=O)N[C@@H](Cc3ccc4ccccc4c3)C(=O)N[C@H](CC(=O)O)C(=O)N2)C(=O)CCSC[C@@H](C(N)=O)NC(=O)[C@H](Cc2c[nH]c3ccccc23)NC(=O)[C@@H]2C[C@@H](O)CN2C(=O)[C@@H]2CCCN2C(=O)[C@H]([C@@H](C)O)NC(=O)[C@H](CO)NC(=O)[C@H](Cc2c[nH]c3ccccc23)NC(=O)[C@H](CC(=O)O)NC(=O)[C@H](CCCNC(=N)N)NC1=O` [[^68Ga]Ga-8c, metal not drawn] ({DOTA}-CP[2Nal][dD]CMRDWSTP[Hyp]WC-NH2; linker 1-5-15 via TATA), the half-life in series [2] (Blood half life fast [min]) amounted to 1.44 ± 0.19 min. The compound further registered a half-life in series [2] (Blood half life slow [min]) of 38.8 ± 2.49 min. Moreover, in series [3], the “Percent fast [%]” value is 78.28 ±1.97%, the “body retention at 2 h p.i.” value is 75% and the “time of highest tumor uptake” value stood at 8.5 min.

In the case of `CSCC[C@@H]1NC(=O)[C@@H]2CSCCC(=O)N3CN(CN(C3)C(=O)CCSC[C@H](NC(=O)CC[C@H](C(=O)O)N3CCN(CC(=O)O)CCN(CC(=O)O)CC3)C(=O)N3CCC[C@H]3C(=O)N[C@@H](Cc3cccc4ccccc34)C(=O)N[C@H](CC(=O)O)C(=O)N2)C(=O)CCSC[C@@H](C(N)=O)NC(=O)[C@H](Cc2c[nH]c3ccccc23)NC(=O)[C@@H]2C[C@@H](O)CN2C(=O)[C@@H]2CCCN2C(=O)[C@H]([C@@H](C)O)NC(=O)[C@H](CO)NC(=O)[C@H](Cc2c[nH]c3ccccc23)NC(=O)[C@H](CC(=O)O)NC(=O)[C@H](CCCNC(=N)N)NC1=O` [[^64Cu]Cu-10, metal not drawn] (X1-CP[1Nal][dD]CMRDWSTP[Hyp]WC-NH2; linker 1-5-15 via TATA), the half-life in series [1] is 208 min.

As for `CSCC[C@@H]1NC(=O)[C@@H]2CSCCC(=O)N3CN(CN(C3)C(=O)CCSC[C@H](NC(=O)CN3CCN(CC(=O)O)CCN(CC(=O)O)CCN(CC(=O)O)CC3)C(=O)N3CCC[C@H]3C(=O)N[C@@H](Cc3cccc4ccccc34)C(=O)N[C@H](CC(=O)O)C(=O)N2)C(=O)CCSCC(C(N)=O)NC(=O)[C@H](Cc2c[nH]c3ccccc23)NC(=O)[C@@H]2C[C@@H](O)CN2C(=O)[C@@H]2CCCN2C(=O)[C@H]([C@@H](C)O)NC(=O)[C@H](CO)NC(=O)[C@H](Cc2c[nH]c3ccccc23)NC(=O)[C@H](CC(=O)O)NC(=O)[C@H](CCCCNC(=N)N)NC1=O` (stereo partly drawn) [1f], the Kd in series [4] (HBS-P+ pH 7.4, 25 °C, single-cycle kinetics, 1:1 model, read-out: K d (SPR)) stood at 1.31 nM. Further, the kon in series [4] (HBS-P+ pH 7.4, 25 °C) was 8.76e+06 M⁻¹ s⁻¹. In addition, the koff in series [4] came out at 0.0115 s⁻¹. Further, in series [5], the “fold lower binding affinity compared to 1e” value is reported as 10 fold and the Hill coefficient n is on record as 1.18.

As for `CCOC[C@@H]1NC(=O)[C@@H]2CSCCC(=O)N3CN(CN(C3)C(=O)CCSC[C@H](NC(=O)CC[C@H](C(=O)O)N3CCN(CC(=O)O)CCN(CC(=O)O)CC3)C(=O)N3CCC[C@H]3C(=O)N[C@@H](Cc3cccc4ccccc34)C(=O)N[C@H](CC(=O)O)C(=O)N2)C(=O)CCSC[C@@H](C(N)=O)NC(=O)[C@H](Cc2c[nH]c3ccccc23)NC(=O)[C@@H]2C[C@@H](O)CN2C(=O)[C@@H]2CCCN2C(=O)[C@H]([C@@H](C)O)NC(=O)[C@H](CO)NC(=O)[C@H](Cc2c[nH]c3ccccc23)NC(=O)[C@H](CC(=O)O)NC(=O)[C@H](CCCCNC(=N)N)NC1=O` [compound 6] (X1-CP[1Nal][dD]CS(Et)[hArg]DWSTP[Hyp]WC-NH2; linker 1-5-15 via TATA), in series [4] (HBS-P+ pH 7.4, 25 °C), the kon amounted to 3.86e+06 M⁻¹ s⁻¹. Also, the koff in series [4] came out at 0.0247 s⁻¹. In addition, in series [5], the “fold lower binding affinity compared to 1e” value is “approximately 10 fold” and the Hill coefficient n is listed as 1.42.

As to `CSCC[C@@H]1NC(=O)[C@@H]2CSCCC(=O)N3CN(CN(C3)C(=O)CCSC[C@H](NC(=O)CN3CCN(CC(=O)O)CCN(CC(=O)O)CCN(CC(=O)O)CC3)C(=O)N3CCC[C@H]3C(=O)N[C@@H](Cc3ccc4ccccc4c3)C(=O)N[C@H](CC(=O)O)C(=O)N2)C(=O)CCSC[C@@H](C(=O)O)NC(=O)[C@H](Cc2c[nH]c3ccccc23)NC(=O)[C@@H]2C[C@@H](O)CN2C(=O)[C@@H]2CCCN2C(=O)[C@H]([C@@H](C)O)NC(=O)[C@H](CO)NC(=O)[C@H](Cc2c[nH]c3ccccc23)NC(=O)[C@H](CC(=O)O)NC(=O)[C@H](CCCNC(=N)N)NC1=O` [[^68Ga]Ga-8d, metal not drawn, reference compound] ({DOTA}-CP[2Nal][dD]CMRDWSTP[Hyp]WC-OH; linker 1-5-15 via TATA), the half-life in series [2] (Blood half life fast [min]) amounted to 1.5 ± 0.15 min. Also, the half-life in series [2] (Blood half life slow [min]) worked out at 37.1 ± 2.19 min. Also, in series [3], the “Percent fast [%]” value is 83.87 ±1.35%, the “body retention at 2 h p.i.” value worked out at 35% and the “time of highest tumor uptake” value was determined as 0.6 min.
